Experimental data: patent US20060229368A1, “MEDICAL APPLICATION OF OXIDIZED MONOTERPENES” (priority 2001, published 2006)

Columns and labels:
A. niger [1] = experiment: agar diffusion-disk technique, halo formation (fungal strains); format: cell-based, Aspergillus niger; conditions: for re-growth around the formulation: A. niger, 96 hours after inhibition; for activity against A. niger: formulation at 0.5%, after 7 days
Procedure: This technique is explained in R. K. Dart, Microbiology for the Analytic Chemist, The Royal Society of Chemists, 1996, which is incorporated herein by reference. […] Anti-bacterial activity was detected by showing a distinguished halo around the disk previously wetted with the formulation. Halo formation was measured with a caliper and biological activity was considered according to size. Details of specific applications and formulations are set forth below. […] SDS indicates Sodium Dodecyl Sulfate. […] Details of specific applications and formulations are set forth below.

A. niger [2] = experiment: culture of the fungi A. niger exposed to disk moistened with formulation (glycerol/SDS base); format: cell-based, Aspergillus niger; conditions: under more controlled conditions; 0.5 and 1% formulations
Procedure: Formulations were further tested against a culture of the fungi A. niger. The fungi was exposed to 1% PCO/1% POH, 1% PCO, and 1% POH formulations. All formulations were prepared in a glycerol/SDS base in water.

bacteria, yeast or fungi = experiment: general statements on activity against bacteria, yeast or fungi; format: cell-based; conditions: enhancer alone

C=C(C)C1CC=C(C=O)CC1 (stereo not drawn) [PCO, perillyl aldehyde]
re-growth around the formulation (A. niger [1]): no growth
activity against A. niger (A. niger [1]): very active
inhibition of growth of A. niger (A. niger [2]): did inhibit growth

C=C(C)[C@@H]1CC=C(CO)CC1 [POH, perillyl alcohol, reference compound]
re-growth around the formulation (A. niger [1]): re-growth
activity against A. niger (A. niger [1]): considerable growth
inhibition of growth of A. niger (A. niger [2]): did not perform as aggressively

CCCCCCCCCCCCOS(=O)(=O)[O-].[Na+] [SDS, Sodium Dodecyl Sulfate]
activity against bacterial cells (bacteria, yeast or fungi): do not provide activity

CC(O)CO (stereo not drawn) [propylene glycol]
activity against bacterial cells (bacteria, yeast or fungi): do not provide activity
effect against bacteria, yeast or fungi (bacteria, yeast or fungi): no effect
